These results are taken from patent publication US8618095B2 (Rigel Pharmaceuticals, Inc., priority 2010, dated 2013).

The structures appear in SMILES notation.

The experiment has as its system Human mast cells (CHMC). Description: LD Tryptase release assay in CHMC (mast cell activation induced by FcγR cross-linking). Type of experiment: cell-based. The following applies: Homo sapiens, Mast cell, anti-IgG stimulation, activity of tryptase released upon degranulation. The procedure, abridged: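 Mast cells derived from CD38-negative progenitors were preincubated 1 h at 37 °C with compound in HEPES-buffered saline (pH 7.4, 0.1% BSA, compound diluted in buffer with 2% MeOH/1% DMSO). Cells were then stimulated 60 min with anti-human IgG (final 1 μg/mL). Released tryptase was measured on Z-Ala-Lys-Arg-AMC (30 min, room temperature, 355/460 nm) to give the IC50.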
For `Cc1cc(Nc2ncc(F)c(Nc3ccc4c(n3)NC(=O)CO4)n2)cnc1N1CCOC(C)(C)C1` [Compound 12, N4-(3,4-dihydro-3-oxo-2H-pyrido[3,2-b][1,4]oxazin-6-yl)-5-fluoro-N2-[5-methyl-6-(2,2-dimethylmorpholino)pyridin-3-yl]-2,4-pyrimidinediamine], the half-maximal inhibitory concentration (IC50) is below 100 nM. The value for `COc1cc(Nc2ncc(F)c(Nc3ccc4c(n3)NC(=O)CO4)n2)ccc1N1CCOCC1` [Compound 33, N4-(3,4-dihydro-3-oxo-2H-pyrido[3,2-b][1,4]oxazin-6-yl)-5-fluoro-N2-[3-methoxy-4-morpholinophenyl]-2,4-pyrimidinediamine] was below 100 nM. `CN(C[C@@H]1CCCO1)c1ccc(Nc2ncc(F)c(Nc3ccc4c(n3)NC(=O)CO4)n2)cn1` [Compound 108, N4-(3,4-dihydro-3-oxo-2H-pyrido[3,2-b][1,4]oxazin-6-yl)-5-fluoro-N2-[6-(((S)-methyl(tetrahydrofuran-2-yl)methyl)amino)pyridin-3-yl]-2,4-pyrimidinediamine]: the IC50 was in the range of 100 to 500 nM.

Regarding `C[C@@H]1CN(c2ccc(Nc3ncc(F)c(Nc4ccc5c(n4)NC(=O)CO5)n3)cc2)CCO1` [Compound 117, N4-(3,4-dihydro-3-oxo-2H-pyrido[3,2-b][1,4]oxazin-6-yl)-5-fluoro-N2-[4-((2R)-2-methylmorpholino)phenyl]-2,4-pyrimidinediamine], the half-inhibitory concentration (IC50) is below 100 nM. The value for `C[C@H]1CN(c2ccc(Nc3ncc(F)c(Nc4ccc5c(n4)NC(=O)CO5)n3)cc2)CCO1` [Compound 80] was below 100 nM.

Turning to `O=C1COc2ccc(Nc3nc(Nc4ccc(N5CCO[C@H](CCO)C5)cc4)ncc3F)nc2N1` (stereo in doubt) [Compound 125, N4-(3,4-dihydro-3-oxo-2H-pyrido[3,2-b][1,4]oxazin-6-yl)-5-fluoro-N2-[4-((2-hydroxyethyl)morpholino)phenyl]-2,4-pyrimidinediamine], the IC50 is below 100 nM.

The term IC50 denotes the point on the concentration scale where inhibition reaches its midpoint.
